Test results: patent US11236087B2, “Highly active pyrazolo-piperidine substituted indole-2-carboxamides active against the hepatitis B virus (HBV)” (AiCuris GmbH & Co. KG, priority 2017, dated 2022)
Where two headings read alike, the source gives them in different places.

Columns and labels:
HBV core protein = biological target: T1, HBV core protein (UniProt P03146); assay: Biochemical capsid assembly assay (fluorescence quenching); set-up: species or system hepatitis B virus; conditions: read-out: Assembly Activity (IC50); BODIPY-FL labelled core protein, 300 μM NaCl, read 6 min after start
T1 construct: fused on or other part: BODIPY-FL maleimide label on the C-terminal Cys150
Method in brief: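 Assembly-induced fluorescence quenching (477/525 nm) was measured 6 min after NaCl addition ([…]), against 2.5 M and 0 M NaCl controls. The labelled C150 core dimer (truncated at 149) at 1.0-2.0 μM in HEPES pH 7.5 was tested with eight half-log compound dilutions, top 100, 31.6 or 10 μM. EC50 was obtained by non-linear fit from triplicates run three times.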

HBV = assay: Determination of HBV DNA from the supernatants of HepAD38 cells (anti-HBV activity); assay type: cell-based, hepatitis B virus; conditions: Hepatitis B virus, read-out: Cell Activity (EC50)
Method in brief: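 Supernatant viral DNA was measured by LightCycler qPCR, calibrated with pCH-9/3091 plasmid, 6 days after tetracycline-free HepAD38 cultures received half-log serial compound dilutions; untreated and tetracycline-treated cells served as controls; EC50 was fitted by non-linear regression.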

[1] = Cell viability assay (AlamarBlue) in HepAD38 cells; conditions: human
[2] = 144 h, HBV DNA in HepAD38 supernatant, day 6, qPCR

T1 sequence (P03146 whole entry, looked up, the tested form may be a part): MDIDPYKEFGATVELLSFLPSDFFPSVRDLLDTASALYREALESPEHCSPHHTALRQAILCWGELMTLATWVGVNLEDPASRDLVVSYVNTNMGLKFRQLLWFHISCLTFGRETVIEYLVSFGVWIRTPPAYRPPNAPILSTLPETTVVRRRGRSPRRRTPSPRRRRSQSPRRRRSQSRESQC

Compound | IC50 (HBV core protein) | EC50 (HBV; [2]) | CC50 at 6 days [1] | EC50 (HBV; HePAD38, 144 h)
CN(CCO)C(=O)c1n[nH]c2c1CN(C(=O)c1cc3c(Cl)cccc3[nH]1)CC2 [Example 58, 5-(4-chloro-1H-indole-2-carbonyl)-N-(2-hydroxyethyl)-N-methyl-1H,4H,5H,6H,7H-pyrazolo[4,3-c]pyridine-3-carboxamide] | < 5 µM | < 1 µM | > 100 µM | 
CN(CCO)C(=O)c1n[nH]c2c1CN(C(=O)c1cc3c(C(F)(F)F)cccc3[nH]1)CC2 [Example 59, N-(2-hydroxyethyl)-N-methyl-5-[4-(trifluoromethyl)-1H-indole-2-carbonyl]-1H,4H,5H,6H,7H-pyrazolo[4,3-c]pyridine-3-carboxamide] | < 5 µM | < 1 µM | > 32 µM | 
CN(CCO)C(=O)c1n[nH]c2c1CN(C(=O)c1cc3c(Cl)cc(F)cc3[nH]1)CC2 [Example 60, 5-(4-chloro-6-fluoro-1H-indole-2-carbonyl)-N-(2-hydroxyethyl)-N-methyl-1H,4H,5H,6H,7H-pyrazolo[4,3-c]pyridine-3-carboxamide] | < 5 µM | < 1 µM | > 32 µM | 
Cc1cc(F)cc2[nH]c(C(=O)N3CCc4[nH]nc(C(=O)N(C)CCO)c4C3)cc12 [Example 61, 5-(6-fluoro-4-methyl-1H-indole-2-carbonyl)-N-(2-hydroxyethyl)-N-methyl-1H,4H,5H,6H,7H-pyrazolo[4,3-c]pyridine-3-carboxamide] | < 5 µM | < 1 µM | > 100 µM | 
CCc1cccc2[nH]c(C(=O)N3CCc4[nH]nc(C(=O)N(C)CCO)c4C3)cc12 [Example 62, 5-(4-ethyl-1H-indole-2-carbonyl)-N-(2-hydroxyethyl)-N-methyl-1H,4H,5H,6H,7H-pyrazolo[4,3-c]pyridine-3-carboxamide] | < 5 µM | < 1 µM | > 100 µM | 
Cc1cccc2[nH]c(C(=O)N3CCc4[nH]nc(C(=O)N(C)CCO)c4C3)cc12 [Example 63, N-(2-hydroxyethyl)-N-methyl-5-(4-methyl-1H-indole-2-carbonyl)-1H,4H,5H,6H,7H-pyrazolo[4,3-c]pyridine-3-carboxamide] | < 5 µM | < 1 µM | > 100 µM | 
CC(C)OC(=O)[C@H](C)NP(=O)(OCCON(C)C(=O)c1n[nH]c2c1CN(C(=O)c1cc3ccccc3[nH]1)CC2)Oc1ccccc1 (stereo partly drawn) [Example 64, propan-2-yl (2S)-2-({[2-({1-[5-(1H-indole-2-carbonyl)-1H,4H,5H,6H,7H-pyrazolo[4,3-c]pyridin-3-yl]-N-methylformamido}oxy)ethoxy](phenoxy)phosphoryl}amino)propanoate] | < 5 µM |  | > 32 µM | < 1 µM
CC(C)OC(=O)[C@H](C)NP(=O)(OCCCN(C)C(=O)c1n[nH]c2c1CN(C(=O)c1cc3c(Cl)cccc3[nH]1)CC2)Oc1ccccc1 (stereo partly drawn) [Example 66, propan-2-yl (2S)-2-{[(3-{1-[5-(4-chloro-1H-indole-2-carbonyl)-1H,4H,5H,6H,7H-pyrazolo[4,3-c]pyridin-3-yl]-N-methylformamido}propoxy)(phenoxy)phosphoryl]amino}propanoate] | < 5 µM |  | > 32 µM | < 1 µM
CC(C)OC(=O)[C@H](C)NP(=O)(OCCN(C)C(=O)c1n[nH]c2c1CN(C(=O)c1cc3c(Cl)cccc3[nH]1)CC2)Oc1ccccc1 (stereo partly drawn) [Example 67, propan-2-yl (2S)-2-{[(2-{1-[5-(4-chloro-1H-indole-2-carbonyl)-1H,4H,5H,6H,7H-pyrazolo[4,3-c]pyridin-3-yl]-N-methylformamido}ethoxy)(phenoxy)phosphoryl]amino}propanoate] | < 5 µM |  | > 32 µM | < 1 µM
CC(C)OC(=O)[C@H](C)NP(=O)(OCCCN(C)C(=O)c1n[nH]c2c1CN(C(=O)c1cc3ccccc3[nH]1)CC2)Oc1ccccc1 (stereo partly drawn) [Example 70, propan-2-yl (2S)-2-{[(3-{1-[5-(1H-indole-2-carbonyl)-1H,4H,5H,6H,7H-pyrazolo[4,3-c]pyridin-3-yl]-N-methylformamido}propoxy)(phenoxy)phosphoryl]amino}propanoate] | < 5 µM |  | > 32 µM | 1 to 25 µM
CC(C)OC(=O)[C@H](C)NP(=O)(OCCN(C)C(=O)c1n[nH]c2c1CN(C(=O)c1cc3ccccc3[nH]1)CC2)Oc1ccccc1 (stereo partly drawn) [Example 71, propan-2-yl (2S)-2-{[(2-{1-[5-(1H-indole-2-carbonyl)-1H,4H,5H,6H,7H-pyrazolo[4,3-c]pyridin-3-yl]-N-methylformamido}ethoxy)(phenoxy)phosphoryl]amino}propanoate] | 5 to 10 µM |  | > 32 µM | 1 to 25 µM
CN(c1n[nH]c2c1CN(C(=O)c1cc3ccccc3[nH]1)CC2)S(C)(=O)=O [Example 74, N-[5-(1H-indole-2-carbonyl)-1H,4H,5H,6H,7H-pyrazolo[4,3-c]pyridin-3-yl]-N-methylmethanesulfonamide] | < 100 µM | 1 to 25 µM | > 100 µM | 
CN(C)c1n[nH]c2c1CN(C(=O)c1cc3ccccc3[nH]1)CC2 [Example 75, 5-(1H-indole-2-carbonyl)-N,N-dimethyl-1H,4H,5H,6H,7H-pyrazolo[4,3-c]pyridin-3-amine] | 5 to 10 µM | < 1 µM | > 100 µM | 
O=C(c1cc2ccccc2[nH]1)N1CCc2[nH]nc(NCC3CC3)c2C1 [Example 79, N-(cyclopropylmethyl)-5-(1H-indole-2-carbonyl)-1H,4H,5H,6H,7H-pyrazolo[4,3-c]pyridin-3-amine] | 5 to 10 µM | 1 to 25 µM | > 100 µM | 
CCNc1n[nH]c2c1CN(C(=O)c1cc3ccccc3[nH]1)CC2 [Example 80, N-ethyl-5-(1H-indole-2-carbonyl)-1H,4H,5H,6H,7H-pyrazolo[4,3-c]pyridin-3-amine] | < 100 µM | 1 to 25 µM | > 100 µM | 
O=C(c1cc2ccccc2[nH]1)N1CCc2[nH]nc(NCC3CCOCC3)c2C1 [Example 81, 5-(1H-indole-2-carbonyl)-N-[(oxan-4-yl)methyl]-1H,4H,5H,6H,7H-pyrazolo[4,3-c]pyridin-3-amine] | < 100 µM | 1 to 25 µM | > 100 µM | 
CS(=O)(=O)Nc1n[nH]c2c1CN(C(=O)c1cc3ccccc3[nH]1)CC2 [Example 82, N-[5-(1H-indole-2-carbonyl)-1H,4H,5H,6H,7H-pyrazolo[4,3-c]pyridin-3-yl]methanesulfonamide] | < 100 µM | < 100 µM | > 100 µM | 
CN(CC1CCOCC1)C(=O)c1n[nH]c2c1CN(C(=O)c1cc3ccccc3[nH]1)CC2 [Example 85, 5-(1H-indole-2-carbonyl)-N-methyl-N-[(oxan-4-yl)methyl]-1H,4H,5H,6H,7H-pyrazolo[4,3-c]pyridine-3-carboxamide] | < 100 µM | 1 to 25 µM | > 100 µM | 
O=C(c1cc2ccccc2[nH]1)N1CCc2[nH]nc(NCc3ccccc3)c2C1 [Example 91, N-benzyl-5-(1H-indole-2-carbonyl)-1H,4H,5H,6H,7H-pyrazolo[4,3-c]pyridin-3-amine] | 5 to 10 µM | 1 to 25 µM | > 100 µM | 
CN(CC1CCOC1)C(=O)c1n[nH]c2c1CN(C(=O)c1cc3ccccc3[nH]1)CC2 (stereo not drawn) [Example 95, 5-(1H-indole-2-carbonyl)-N-methyl-N-[(oxolan-3-yl)methyl]-1H,4H,5H,6H,7H-pyrazolo[4,3-c]pyridine-3-carboxamide] | < 100 µM | 1 to 25 µM | > 100 µM | 
O=C(NCC1CCOC1)c1n[nH]c2c1CN(C(=O)c1cc3ccccc3[nH]1)CC2 (stereo not drawn) [Example 96, 5-(1H-indole-2-carbonyl)-N-[(oxolan-3-yl)methyl]-1H,4H,5H,6H,7H-pyrazolo[4,3-c]pyridine-3-carboxamide] | < 100 µM | 1 to 25 µM | > 100 µM | 
CN(CC1CCCO1)C(=O)c1n[nH]c2c1CN(C(=O)c1cc3ccccc3[nH]1)CC2 (stereo not drawn) [Example 97, 5-(1H-indole-2-carbonyl)-N-methyl-N-[(oxolan-2-yl)methyl]-1H,4H,5H,6H,7H-pyrazolo[4,3-c]pyridine-3-carboxamide] | 5 to 10 µM | < 1 µM | > 100 µM | 
CN1CCN(C(=O)c2n[nH]c3c2CN(C(=O)c2cc4ccccc4[nH]2)CC3)CC1 [Example 98, 2-[3-(4-methylpiperazine-1-carbonyl)-1H,4H,5H,6H,7H-pyrazolo[4,3-c]pyridine-5-carbonyl]-1H-indole] | < 100 µM | 1 to 25 µM | > 32 µM | 
O=C(c1cc2ccccc2[nH]1)N1CCc2[nH]nc(C(=O)N3CCCC3)c2C1 [Example 99, 2-[3-(pyrrolidine-1-carbonyl)-1H,4H,5H,6H,7H-pyrazolo[4,3-c]pyridine-5-carbonyl]-1H-indole] | 5 to 10 µM | 1 to 25 µM | > 100 µM | 
CN(CCO)C(=O)c1n[nH]c2c1CN(C(=O)c1cc3ccccc3[nH]1)CC2 [Example 100, N-(2-hydroxyethyl)-5-(1H-indole-2-carbonyl)-N-methyl-1H,4H,5H,6H,7H-pyrazolo[4,3-c]pyridine-3-carboxamide] | < 5 µM | < 1 µM | > 100 µM | 
